Measured values: patent publication US6838445B1, “Tumor antigen peptide originating in SART-1” (Kyogo Itoh, priority 1998, dated 2005)
Where no end group is shown, it is not given here.

Key:
[1] = system: KE-4CTL reacting with HLA-A2402-expressing VA-13 cells; assay: IFN-γ production by KE-4CTL against peptide-pulsed HLA-A2402-expressing VA-13 cells (ELISA); format: cell-based, human; conditions: peptide 10 μM for 2 hours on HLA-A2402-expressing VA-13 cells, 18 hours culture with 2×10^4 KE-4CTLs
Description: Concretely, when peripheral blood lymphocytes are isolated from HLA-A24 antigen-positive human and candidate peptides are added thereto to stimulate in vitro, it can be evaluated by determining whether or not CTLs that specifically recognize the candidate peptide-pulsed HLA-A24-positive cells are induced. Here, the presence or absence of the induction of the CTLs can be examined, for instance, by assaying an amount of various cytokines (for instance, IFN-γ) produced by CTLs in reaction with the antigen peptide presenting cells by means of enzyme-linked immunosorbent assay (ELISA) or the like. As the antigen peptide presenting cells (target cells) during the assay, there are included, for instance, esophageal cancer cell line KE-4 (FERM BP-5955). In addition, the induction can be examined by the method for assaying CTL toxicity on ^51Cr-labeled antigen peptide presenting cells (^51Cr-release assay, Int. J. Cancer, 58:317, 1994). Further, the induction can be examined by pulsing with candidate peptides to cells resulting from introduction of an expression plasmid into, for instance, COS-7 cells (ATCC No. CRL1651) and VA-13 cells (RIKEN CELL BANK), the expression plasmid for expressing HLA-A24 cDNA [Cancer Res., 55:4248-4252 (1995); Genbank Accession No. M64740]; reacting KE-4CTL (FERM BP-5954), or CTLs prepared in the manner described above, or the like with the resulting cells; and assaying an amount of various cytokines (for instance, IFN-γ) that are produced by CTLs.
HLA-A2402 cDNA (listed in Genbank Accession No. M64740) was obtained from KE-4 in accordance with the description in the publication (Cancer Res., 55:4248, 1995), and a recombinant plasmid was prepared by incorporating the resulting product into an expression vector pCR3 (manufactured by INVITROGEN). This plasmid was transfected to 10^4 cells of VA-13 cells (available from RIKEN CELL BANK; Ann. Med Exp. Biol. Fenn., 44:242, 1966) by lipofectin method in accordance with the publication (J. Exp. Med., 187:277, 1998), to thereby express HLA-A2402. Each of the peptides “725-733,” “740-750,” “746-755,” “746-756” and “758-766*” among those listed in Example 1 was added at 10 μM in 2 hours, and thereafter the mixture was cultured for 18 hours together with 2×10^4 of KE-4CTLs. An amount of IFN-γ produced by KE-4CTLs in the culture supernatant was assayed by ELISA method. […] Thereafter, the resulting product was developed by using Peroxidase Developing Kit T (manufactured by Sumitomo Bakelite Company, Limited), and thereafter its absorbance (405 nm) was determined. The resulting value was quantified by comparing it with the value obtained from standard IFN-γ. […]

[2] = system: HLA-A2402-positive KE-4 cells; assay: Induction of CTLs from peripheral blood lymphocytes by peptide; IFN-γ release against KE-4 target cells (ELISA); format: cell-based, human; conditions: for induction of antigen peptide-specific CTLs from peripheral blood lymphocytes: conclusion from Table 1; for reactivity of peptide-stimulated peripheral blood lymphocytes against KE-4 compared with negative control QG56: from Table 1; for IFN-γ (pg/ml) in Supernatant: peripheral blood lymphocytes (HLA-A24 homo healthy donors) stimulated three times with 10 μM peptide, 8×10^4 effectors, target cells KE-4 (1×10^4)
Description: (§1) First, lymphocytes were isolated by Ficol method from peripheral blood of healthy donors whose HLA-A locus is A24 homo. The lymphocytes were aliquoted to a 24-well plate so as to be 2×10^6 cells/well, and cultured in a culture medium containing 45% RPMI 1640 medium, 45% AIM-V medium, 10% FCS and 100 U/ml IL-2. Each of the above-mentioned tumor antigen peptides was added to the culture medium so as to have a concentration of 10 μM, to stimulate the peripheral blood lymphocytes. One week later, the above-mentioned tumor antigen peptide was added thereto so as to have a concentration of 10 μM, together with about 2×10^5 of X-ray irradiated (50 Gy) peripheral blood lymphocytes, to carry out a second stimulation of the lymphocytes. After another week, a third stimulation was carried out by repeating the procedures in the same manner as above. After one week from the third stimulation, the cultured lymphocytes were collected. The amount of IFN-γ of the supernatant was assayed by ELISA, the supernatant being produced by reacting the above-mentioned lymphocytes (8×10^4) with HLA-A2402-positive KE-4 cells in which the tumor antigen protein was expressed and with HLA-A2402-negative QG56 cells in which the tumor antigen protein was expressed, respectively, as targeted cells (1×10^4).

[3] = system: HLA-A2402-negative QG56 cells; assay: Induction of CTLs from peripheral blood lymphocytes by peptide; IFN-γ release against QG56 target cells (ELISA); format: cell-based; conditions: peripheral blood lymphocytes (HLA-A24 homo healthy donors) stimulated three times with 10 μM peptide, 8×10^4 effectors; target cells QG56 (1×10^4), negative control
Description: as §1

Row | Sequence | activity as HLA-A24-restricted tumor antigen peptide (amount of IFN-γ produced by KE-4CTLs, FIG. 1) [1] | induction of antigen peptide-specific CTLs from peripheral blood lymphocytes [2] | reactivity of peptide-stimulated peripheral blood lymphocytes against KE-4 compared with negative control QG56 [2] | IFN-γ (pg/ml) in Supernatant [2] | IFN-γ (pg/ml) in Supernatant [3]
1 | AFRQLSHRF [725-733] | function as HLA-A24-restricted tumor antigen peptides |  |  |  | 
2 | KMKTERRMKKL [740-750] | function as HLA-A24-restricted tumor antigen peptides |  |  |  | 
3 | RMKKLDEEAL [746-755] | function as HLA-A24-restricted tumor antigen peptides | antigen peptide-specific CTLs were induced | stronger reactivities against KE-4 | 595.5 pg/mL | 281.4 pg/mL
4 | RMKKLDEEALL [746-756] | function as HLA-A24-restricted tumor antigen peptides | antigen peptide-specific CTLs were induced | stronger reactivities against KE-4 | 701.5 pg/mL | 392.0 pg/mL
